Molecular target: T1, Des1 (Homo sapiens, UniProt O15121)
T1 sequence (O15121 1-323): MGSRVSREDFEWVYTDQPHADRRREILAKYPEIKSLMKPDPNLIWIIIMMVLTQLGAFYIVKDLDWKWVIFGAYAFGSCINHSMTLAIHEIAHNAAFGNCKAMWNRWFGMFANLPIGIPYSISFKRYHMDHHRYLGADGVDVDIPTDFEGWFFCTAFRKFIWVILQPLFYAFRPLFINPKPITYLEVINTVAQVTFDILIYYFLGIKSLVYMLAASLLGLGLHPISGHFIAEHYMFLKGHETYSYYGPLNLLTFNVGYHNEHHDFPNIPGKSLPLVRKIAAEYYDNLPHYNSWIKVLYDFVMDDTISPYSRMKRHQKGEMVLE
Experiment: Jurkat T cell measurement of conversion of dihydroceramide to ceramide (Des1 activity, LC-MS/MS of NBD-C6-ceramide)
Assay type: cell-based
Design: endogenous in cells; host or cells: Jurkat clone E6-1
Conditions: Jurkat clone E6-1 cells, 10 μM NBD-C6-dihydroceramide, 3 hours at 37° C.; for inhibition at 0.5 µM: 0.5 uM compound, read-out: Des1 % Inhib (0.5 uM); for IC50: read-out: Des1 IC50
Experimental: Jurkat T Cell Measurement of Conversion of Dihydroceramide to Ceramide
Jurkat clone E6-1 cells were grown and then seeded at 10^6 cells/mL in a 96-well plate (400 μL in each well. The cells were administered 100 μL of cell culture media containing 50-μM NBD-C6-dihydroceramide (Des1 substrate), affording a final concentration of substrate of 10 μM. The cells were incubated with substrate at 4° C. for 30 minutes. Following the incubation at 4° C., the cell suspension was centrifuged at 1200 rpm for 3 minutes, and the cell pellet is resuspended in 400 μL of fresh media containing various concentrations of either fenretinide (known Des1 inhibitor control compound) or test article. The final concentrations of control compound and test compounds were tested in a range from 0-10 μM. The cells and compounds were incubated at 37° C. for 3 hours. Following the 3-hour incubation, the plate was centrifuged at 2500 g for 3 minutes at 4° C., followed by collection and transfer of 200 μL of the supernatant to a new 96-well plate with 300 μL of methanol an containing appropriate internal standards for liquid chromatography/tandem mass spectroscopy (LC/MS/MS) analysis (internal standard: 500 nM labetalol and 100 nM alprazolam). The samples were vortexed for 2 minutes followed by centrifugation at 3,220 g for 20 minutes. Following centrifugation, 200 μL of the supernatant was transferred to a new 96-well plate for LC-MS/MS analysis to determine the amount of NBD-C6-ceramide (Des1 product) produced. The assay was typically performed in duplicate. A reduction of at least 30% compared to vehicle control (0 μM test article) is indicative of an active compound, and a reduction of 75% compared to vehicle control is preferred.

SMILES	inhibition at 0.5 µM [%]	IC50 [nM]
O=S(=O)(Nc1ccc(O)cn1)N1CCN(c2ccc(Cl)cc2)CC1 [Example 74, 4-(4-chlorophenyl)-N-(5-hydroxypyridin-2-yl)piperazine-1-sulfonamide]	72.8	–
O=S(=O)(Nc1ccc(O)cn1)C1CCN(c2ccc(C(F)(F)F)cc2)CC1 [Example 69, N-(5-hydroxypyridin-2-yl)-1-[4-(trifluoromethyl)phenyl]piperidine-4-sulfonamide]	95	40
O=C(Nc1ccc(O)cn1)N1CCC(c2cccc(Cl)c2)CC1 [Example 7]	94	26
O=C(Nc1ccc(O)cn1)N1CCN(c2cc(C(F)(F)F)ccn2)CC1 [Example 33, N-(5-hydroxypyridin-2-yl)-4-[4-(trifluoromethyl)pyridin-2-yl]piperazine-1-carboxamide]	93.1	7
O=C(Nc1ccc(O)cn1)N1CCN(c2ncccn2)CC1 [Example 16, N-(5-hydroxypyridin-2-yl)-4-(pyrimidin-2-yl)piperazine-1-carboxamide]	31.4	–
O=C(Nc1ccc(O)cn1)N1CCN(c2cnn(-c3ccccc3)c2)CC1 [Example 80, N-(5-hydroxypyridin-2-yl)-4-(1-phenyl-1H-pyrazol-4-yl)piperazine-1-carboxamide]	56.9	–
O=C(Nc1ccc(O)cn1)N1CCN(c2cccc(C(F)(F)F)n2)CC1 [Example 36, N-(5-hydroxypyridin-2-yl)-4-[6-(trifluoromethyl)pyridin-2-yl]piperazine-1-carboxamide]	94.9	23
O=C(Nc1ccc(O)cc1)N1CCN(c2ccc(C(F)(F)F)cn2)CC1 [Example 31, N-(4-hydroxyphenyl)-4-[5-(trifluoromethyl)pyridin-2-yl]piperazine-1-carboxamide]	–	340
O=S(=O)(Nc1ccc(O)cn1)C1CCN(Cc2ccccc2)CC1 [Example 65, 1-benzyl-N-(5-hydroxypyridin-2-yl)piperidine-4-sulfonamide]	–	> 1000
COc1ccc(C2CCN(C(=O)Nc3ccc(O)cn3)CC2)cc1 [Example 6, N-(5-Hydroxypyridin-2-yl)-4-(4-methoxyphenyl)piperidine-1-carboxamide]	81.8	69
O=C(Nc1ccc(O)cn1)N1CCCN(c2ccc(F)c(F)c2)CC1 [Example 87, 4-(3,4-difluorophenyl)-N-(5-hydroxypyridin-2-yl)-1,4-diazepane-1-carboxamide]	92.7	21
O=C(Nc1ccc(O)cn1)NC1CCCN(c2ccc(Cl)cc2)C1 (centres unmarked) [Example 48, 1-[1-(4-chlorophenyl)piperidin-3-yl]-3-(5-hydroxypyridin-2-yl)urea]	39.8	–
O=C(Nc1ccc(O)cn1)NC1CCN(c2ccc(F)cn2)CC1 [Example 49, 1-[1-(5-fluoropyridin-2-yl)piperidin-4-yl]-3-(5-hydroxypyridin-2-yl)urea]	–	130
O=C(Nc1ccc(O)cn1)N1CCCN(c2ccc(C(F)(F)F)cn2)CC1 [Example 86, N-(5-hydroxypyridin-2-yl)-4-[5-(trifluoromethyl)pyridin-2-yl]-1,4-diazepane-1-carboxamide]	84.6	78
O=C(Nc1ccc(O)cn1)N1CCN(Cc2ccc(F)c(F)c2)CC1 [Example 77, 4-[(3,4-difluorophenyl)methyl]-N-(5-hydroxypyridin-2-yl)piperazine-1-carboxamide]	91.9	35

Results, then the compound that gave them:

inhibition at 0.5 µM [%]	IC50 [nM]	SMILES
89.1	13	CCCCCCNC(=O)Nc1ccc(O)cn1 [Example 40, 1-Hexyl-3-(5-hydroxypyridin-2-yl)urea]
89.7	150	O=C(Nc1ccc(O)cc1)N1CCN(c2ccc(C(F)(F)F)cc2)CC1 [Example 30, N-(4-hydroxyphenyl)-4-[4-(trifluoromethyl)phenyl]piperazine-1-carboxamide]
–	64 to 94	O=C(Nc1ccc(O)cn1)N1CCN(c2ccc(F)cn2)CC1 [Example 24, 4-(5-fluoropyridin-2-yl)-N-(5-hydroxypyridin-2-yl)piperazine-1-carboxamide]
91.7	25	O=C(Nc1ccc(O)cn1)N1CCC(c2ccc(F)cc2)CC1 [Example 2, N-[5-[Hydroxy]pyridin-2-yl]-4-(4-fluorophenyl)piperidine-1-carboxamide]
96.6	4	O=C(Nc1ccc(O)cn1)N1CCN(c2ccc(C(F)(F)F)cn2)CC1 [Example 18, N-(5-hydroxypyridin-2-yl)-4-[5-(trifluoromethyl)pyridin-2-yl]piperazine-1-carboxamide]
76.7	–	O=C(Nc1ccc(O)cn1)N[C@H]1CC[C@H](c2ccccc2)CC1 [Example 19, 3-(5-hydroxypyridin-2-yl)-1-[(1r,4r)-4-phenylcyclohexyl]urea]
91.5	60	O=C(Nc1ccc(O)cn1)N1CCN(Cc2ccc(F)cc2)CC1 [Example 38, 4-[(4-Fluorophenyl)methyl]-N-(5-hydroxypyridin-2-yl)piperazine-1-carboxamide]
–	14	O=C(Nc1ccc(O)cn1)N1CCN(c2ccc(Cl)cn2)CC1 [Example 22, 4-(5-chloropyridin-2-yl)-N-(5-hydroxypyridin-2-yl)piperazine-1-carboxamide]
–	9	O=C(Nc1ccc(O)cn1)N1CCN(c2ccc(F)c(F)c2)CC1 [Example 25, 4-(3,4-difluorophenyl)-N-(5-hydroxypyridin-2-yl)piperazine-1-carboxamide]
37.5	–	CC(C)c1ccc(S(=O)(=O)Nc2ccc(O)cn2)cc1 [Example 61, N-(5-Hydroxypyridin-2-yl)-4-(propan-2-yl)benzene-1-sulfonamide]
–	11	N#Cc1ccc(N2CCN(C(=O)Nc3ccc(O)cn3)CC2)cc1 [Example 27, 4-(4-cyanophenyl)-N-(5-hydroxypyridin-2-yl)piperazine-1-carboxamide]
92.4	85	O=S(=O)(Nc1ccc(O)cn1)C1CCN(c2ccc(Cl)cc2)CC1 [Example 68, 1-(4-chlorophenyl)-N-(5-hydroxypyridin-2-yl)piperidine-4-sulfonamide]
91.3	3	O=C(Nc1ccc(O)cn1)N1CCN(c2cccc(F)n2)CC1 [Example 35, 4-(6-fluoropyridin-2-yl)-N-(5-hydroxypyridin-2-yl)piperazine-1-carboxamide]
–	29	O=C(Nc1ccc(O)cn1)NC1CCN(c2ccc(Cl)cc2)CC1 [Example 52, 1-[1-(4-chlorophenyl)piperidin-4-yl]-3-(5-hydroxypyridin-2-yl)urea]
–	10	O=C(Nc1ccc(O)cn1)N1CCN(c2ccc(Cl)cc2Cl)CC1 [Example 23, 4-(2,4-dichlorophenyl)-N-(5-hydroxypyridin-2-yl)piperazine-1-carboxamide]
96.5	2	O=C(Nc1ccc(O)cn1)OC1CCN(c2ccc(Cl)cc2)CC1 [Example 55, 1-(4-chlorophenyl)piperidin-4-yl N-(5-hydroxypyridin-2-yl)carbamate]
–	470	COc1ccc(N2CCN(C(=O)Nc3ccc(O)cn3)CC2)nc1 [Example 45, N-(5-hydroxypyridin-2-yl)-4-(5-methoxypyridin-2-yl)piperazine-1-carboxamide]
94.9	65	O=C(Nc1ccc(O)cn1)N1CCN(c2nc(F)c(F)cc2F)CC1 [Example 83, N-(5-hydroxypyridin-2-yl)-4-(3,5,6-trifluoropyridin-2-yl) piperazine-1-carboxamide]
81.8	110	COc1ccc(N2CCN(C(=O)Nc3ccc(O)cn3)CC2)cc1 [Example 15, N-(5-hydroxypyridin-2-yl)-4-(4-methoxyphenyl)piperazine-1-carboxamide]
97	6	O=C(Nc1ccc(O)cn1)O[C@H]1CC[C@H](c2ccccc2)CC1 [Example 43, (1r,4r)-4-Phenylcyclohexyl N-(5-hydroxypyridin-2-yl)carbamate]
81.4	35	O=C(Nc1ccc(O)cn1)OC1CCCCC1 [Example 42, Cyclohexyl N-(5-hydroxypyridin-2-yl)carbamate]

Source: US12247019B2 (Centaurus Therapeutics, priority 2018, dated 2025)
